For series [1], the target named is T1, GCGR (Homo sapiens, UniProt P47871). In words: cAMP production (HTRF) in PathHunter CHO-K1 cells expressing GCGR. It counts as cell-based. Also noted: expressed in transfected cells. As to conditions: 30 min, mean ± SEM, n = 6; for EC50: 37 °C, serum-free medium, no phosphodiesterase inhibitors, read-out: GCGR CAMP (CHO–K1) pEC50 (converted); for Emax: CHO-K1, normalised to globally fitted maximum response. As to the method: (§1) HEK293T cells were maintained in DMEM supplemented with 10% FBS and 1% penicillin/streptomycin. PathHunter CHO–K1-βarr2-EA cells stably expressing human GLP-1R, GCGR, or GIPR and PathHunter CHO–K1-βarr1-EA cells stably expressing GCGR were obtained from DiscoverX and maintained in Ham's F12 medium with 10% FBS and 1% penicillin/streptomycin. Stable HEK293-SNAP-GLP-1R cells were maintained in DMEM supplemented with 10% FBS, 1% penicillin/streptomycin, and 1 mg/ml of G418. INS-1 832/3 cells, a gift from Professor Chris Newgard (Duke University), were maintained in RPMI with 11 mM of glucose supplemented with 10% FBS, 10 mM of HEPES, 1 mM of pyruvate, 50 μM of β-mercaptoethanol, and 1% penicillin/streptomycin. Huh7 cells stably expressing human GCGR (Huh7-GCGR) were maintained in DMEM supplemented with 10% FBS, 1 mg/ml of G418, and 1% penicillin/streptomycin.
(§2) PathHunter cells were stimulated with the indicated concentration of agonist for 30 min at 37 °C in serum-free medium without phosphodiesterase inhibitors. INS-1 832/3 cells were stimulated with the indicated concentration of agonist for 10 min at 37 °C in serum-free medium with 100 μM of 3-isobutyl-1-methylxanthine (IBMX). Primary dispersed mouse islet cells prepared by triturating intact islets in 0.05% trypsin/EDTA for 3 min at 37 °C were stimulated with the indicated concentration of agonist for 5 min at 37 °C in serum-free medium with 11 mM of glucose and 500 μM of IBMX. Primary mouse hepatocytes were stimulated in serum-free medium with 100 μM of IBMX for 10 min or 16 h in serum-free medium with 100 μM of IBMX added for the final 10 min of incubation. Huh7-GCGR cells were stimulated in serum-free medium without phosphodiesterase inhibitors for 10 min or for 16 h in serum-free medium. Where relevant, forskolin (10 μM) was added as a positive or normalisation control. At the end of each incubation, cAMP was then assayed by HTRF (Cisbio cAMP Dynamic 2) and concentration-response curves were constructed with 3-parameter curve fitting using Prism 8.0.
In general terms: cAMP levels reflect the balance of adenylyl cyclase and phosphodiesterase activity.

Another series deals with GLP-1R (Homo sapiens, UniProt P43220). Nature of the series: NanoBiT β-arrestin-2 recruitment to GLP-1R-SmBiT in HEK293T cells. It counts as cell-based. As to conditions: SRB103 pair, mean ± SEM, n = 6; for Emax: HEK-293T, normalised to full agonist response, read-out: GLP-1R βarr2 (HEK293T) Emax; for EC50: 3-parameter fit, read-out: GLP-1R βarr2 (HEK293T) pEC50 (converted). As to the method: The assay was performed as previously described. […] (gifts from Professor Nevin Lambert, Medical College of Georgia) or 0.05 μg of GLP-1R-SmBiT and 0.05 μg of LgBiT-β-arrestin-2 (Promega) plus 0.9 μg of pcDNA3.1 for 24 h. The cells were detached with EDTA, resuspended in HBSS, and furimazine (Promega) was added at a 1:50 dilution from the manufacturer's pre-prepared stock. After dispensing into 96-well white plates, a baseline read of the luminescent signals was serially recorded for 5 min using a FlexStation 3 instrument at 37 °C before the indicated concentration of ligand was added, after which the signals were repeatedly recorded for 30 min. […] Bias was calculated using two approaches. First, the log max/EC50 method was used, with the ratio of Emax to EC50 from 3-parameter fits for each ligand used to quantify agonism. After log10 transformation, responses were expressed relative to the reference agonist on a per assay basis to obtain Δlog(Emax/EC50) for each pathway. Pathway-specific values were then expressed relative to each other to obtain ΔΔlog(Emax/EC50), that is, the log bias factor. Second, a method derived from kinetic curve fitting was used. Here, kinetic responses for a single maximal agonist concentration were normalised at each time point to the vehicle response prior to curve fitting. Mini-Gs responses were fitted using the one-phase exponential association equation in Prism 8.0. β-arrestin-2 responses were fitted using the biexponential equation described in [29]. […] Pathway-specific values were then expressed relative to each other to obtain ΔΔlog kτ , that is, the log bias factor.

Series [2] relates to primary mouse hepatocytes. Nature of the series: cAMP accumulation in primary mouse hepatocytes. The note with it: expressed relative to 10 μM forskolin response, mean ± SEM, n = 4; for cAMP 10 min (primary hepatocytes) Emax: 100 μM IBMX; for cAMP 16 h (primary hepatocytes) Emax: 100 μM IBMX for final 10 min. Type of series: cell-based. As for the experimental part:
Hepatocytes from adult male C57Bl/6J mice were isolated using collagenase perfusion. After filtering and washing, the cells were used to directly assay cAMP responses as described in the next section.
as §2

In series [3] the target is T1, GCGR. In words: NanoBiT β-arrestin-2 recruitment to GCGR-SmBiT in HEK293T cells. Also noted: expressed in transfected cells; host or cells: HEK293T. The note with it: SRB103 pair, mean ± SEM, n = 6; for Emax: HEK-293T, normalised to full agonist response, read-out: GCGR βarr2 (HEK293T) Emax; for EC50: 3-parameter fit, read-out: GCGR βarr2 (HEK293T) pEC50 (converted). It counts as cell-based. A general note: Arrestin recruitment assays detect the binding of arrestin to an activated receptor.

The nature of series [4]: Pharmacokinetic study in rats (SC with ZnCl2, plasma radioimmunoassay). Type of series: in vivo, rat. The note with it: 4 mg/kg SC with zinc, up to 72 h. As for the experimental part: The mice were administered 0.5 mg/kg of peptide via IP injection. Four h after injection, blood was acquired by venesection into lithium heparin-coated microvette tubes (Sarstedt, Germany). In a separate study, male Sprague Dawley rats (average weight 250 g, obtained from Charles River) were administered 4 mg/kg of peptide SC mixed in aqueous ZnCl2 solution to a molar ratio of 0.7:1 (peptide:ZnCl2), and blood was collected by venesection at several time points up to 72 h. Plasma was separated by centrifugation at 10,000 g for 8 min at 4 °C. Plasma concentrations were assessed by radioimmunoassay using an in-house assay as previously described using standard curves generated from each SRB103 peptide to ensure that equivalent recovery was obtained.

In series [5] the target is T1, GCGR. Nature of the series: cAMP accumulation in Huh7-GCGR cells. Also noted: expressed in transfected cells; host or cells: Huh7. As to conditions: mean ± SEM, n = 6; for Emax: expressed relative to 10 μM forskolin response. It counts as cell-based. As to the method: as §1, §2
Where [6] appears, read: 16 h, read-out: Huh7-GCGR cAMP,16 h Emax.
[7] abbreviates: 16 h, read-out: Huh7-GCGR cAMP,16 h pEC50 (converted).
The mark [8] stands for this setting: Huh7-GCGR cAMP, 10 min pEC50, 10 min, no phosphodiesterase inhibitors.
[9] abbreviates: read-out: Huh7-GCGR cAMP, 10 min Emax, 10 min.

The results in this text go back to PMC8163982, “Partial agonism improves the anti-hyperglycaemic efficacy of an oxyntomodulin-derived GLP-1R/GCGR co-agonist” (Molecular Metabolism, 2021).

Where a SMILES comes first, the peptide text is derived from it. [ ]: non-standard residue; d: D form. Aib = CC(C)(N)C(=O)O

The term Emax denotes the greatest response seen or fitted, relative to the assay's reference.

Sequence of GLP-1R (P43220 24-463): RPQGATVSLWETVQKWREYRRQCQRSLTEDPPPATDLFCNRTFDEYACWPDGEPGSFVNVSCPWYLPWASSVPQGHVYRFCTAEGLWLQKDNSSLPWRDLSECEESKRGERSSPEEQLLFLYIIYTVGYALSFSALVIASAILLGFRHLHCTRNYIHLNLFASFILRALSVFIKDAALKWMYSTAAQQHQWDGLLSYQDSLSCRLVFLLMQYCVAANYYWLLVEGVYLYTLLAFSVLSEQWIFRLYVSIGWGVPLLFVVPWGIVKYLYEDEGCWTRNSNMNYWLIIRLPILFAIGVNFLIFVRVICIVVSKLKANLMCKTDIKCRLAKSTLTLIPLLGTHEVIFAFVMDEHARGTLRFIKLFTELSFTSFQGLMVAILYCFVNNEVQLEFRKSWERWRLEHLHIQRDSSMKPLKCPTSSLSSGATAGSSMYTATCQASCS
T1 sequence (P47871 26-477): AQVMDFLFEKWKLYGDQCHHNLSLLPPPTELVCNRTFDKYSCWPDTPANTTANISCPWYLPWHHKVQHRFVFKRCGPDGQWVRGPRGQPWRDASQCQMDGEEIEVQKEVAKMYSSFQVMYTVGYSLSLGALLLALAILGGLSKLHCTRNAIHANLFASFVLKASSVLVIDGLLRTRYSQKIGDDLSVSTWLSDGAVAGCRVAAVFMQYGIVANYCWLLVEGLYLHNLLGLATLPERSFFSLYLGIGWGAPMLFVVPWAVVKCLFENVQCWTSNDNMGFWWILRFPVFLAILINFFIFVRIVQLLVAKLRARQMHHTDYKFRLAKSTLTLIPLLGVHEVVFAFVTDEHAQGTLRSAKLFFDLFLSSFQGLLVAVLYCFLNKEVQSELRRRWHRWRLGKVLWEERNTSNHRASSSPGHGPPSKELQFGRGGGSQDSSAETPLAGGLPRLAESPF

Consider `CC[C@H](C)[C@H](NC(=O)[C@H](Cc1ccccc1)NC(=O)[C@H](CCC(=O)O)NC(=O)[C@H](CCC(N)=O)NC(=O)[C@H](C)NC(=O)[C@H](CCCNC(=N)N)NC(=O)[C@H](CCCCN)NC(=O)[C@H](C)NC(=O)[C@H](CC(=O)O)NC(=O)[C@H](CC(C)C)NC(=O)[C@H](Cc1ccc(O)cc1)NC(=O)[C@H](CCCCN)NC(=O)[C@H](CO)NC(=O)[C@H](Cc1ccc(O)cc1)NC(=O)[C@H](CC(=O)O)NC(=O)[C@H](CO)NC(=O)[C@@H](NC(=O)[C@H](Cc1ccccc1)NC(=O)[C@@H](NC(=O)CNC(=O)[C@H](Cc1c[nH]cn1)NC(=O)C(C)(C)NC(=O)[C@@H](N)Cc1c[nH]cn1)[C@@H](C)O)[C@@H](C)O)C(=O)N[C@@H](CCC(=O)O)C(=O)N[C@@H](Cc1c[nH]c2ccccc12)C(=O)N[C@@H](CC(C)C)C(=O)N[C@@H](CC(C)C)C(=O)N[C@@H](C)C(=O)NCC(=O)N[C@@H](Cc1c[nH]cn1)C(=O)N[C@@H](Cc1c[nH]cn1)C(=O)N[C@@H](Cc1c[nH]cn1)C(=O)N[C@@H](Cc1c[nH]cn1)C(=O)N[C@@H](Cc1c[nH]cn1)C(=O)N1CCC[C@H]1C(=O)N[C@@H](CO)C(=O)N[C@@H](Cc1c[nH]c2ccccc12)C(=O)O` [SRB103H] (H-H[Aib]HGTFTSDYSKYLDAKRAQEFIEWLLAGHHHHHPSW-OH), for which the EC50 on GCGR [1] is 0.251 nM; at GLP-1R, 398 nM; on GCGR [3] it was 31.6 nM; at GCGR [5] (setting [7]), 0.251 nM; on GCGR [5] (setting [8]) it was 0.0316 nM. The maximal response (Emax) is 107 ± 5% at GCGR [1]; 100% at GLP-1R; 100% on GCGR [3]; 173 ± 11% on GCGR [5] (setting [6]); 27 ± 4% at GCGR [5] (setting [9]). Besides, the “cAMP 10 min (primary hepatocytes) Emax” value in series [2] is given as 170 ± 7. In addition, the “cAMP 16 h (primary hepatocytes) Emax” value in series [2] is 206 ± 7. Besides, the “Pharmacokinetics by serial plasma sampling” value in series [4] is reported as “no obvious difference in pharmacokinetics”.

With `CC[C@H](C)[C@H](NC(=O)[C@H](Cc1ccccc1)NC(=O)[C@H](CCC(=O)O)NC(=O)[C@H](CCC(N)=O)NC(=O)[C@H](C)NC(=O)[C@H](CCCNC(=N)N)NC(=O)[C@H](CCCCN)NC(=O)[C@H](C)NC(=O)[C@H](CC(=O)O)NC(=O)[C@H](CC(C)C)NC(=O)[C@H](Cc1ccc(O)cc1)NC(=O)[C@H](CCCCN)NC(=O)[C@H](CO)NC(=O)[C@H](Cc1ccc(O)cc1)NC(=O)[C@H](CC(=O)O)NC(=O)[C@H](CO)NC(=O)[C@@H](NC(=O)[C@H](Cc1ccccc1)NC(=O)[C@@H](NC(=O)CNC(=O)[C@H](CCC(N)=O)NC(=O)C(C)(C)NC(=O)[C@@H](N)Cc1c[nH]cn1)[C@@H](C)O)[C@@H](C)O)C(=O)N[C@@H](CCC(=O)O)C(=O)N[C@@H](Cc1c[nH]c2ccccc12)C(=O)N[C@@H](CC(C)C)C(=O)N[C@@H](CC(C)C)C(=O)N[C@@H](C)C(=O)NCC(=O)N[C@@H](Cc1c[nH]cn1)C(=O)N[C@@H](Cc1c[nH]cn1)C(=O)N[C@@H](Cc1c[nH]cn1)C(=O)N[C@@H](Cc1c[nH]cn1)C(=O)N[C@@H](Cc1c[nH]cn1)C(=O)N1CCC[C@H]1C(=O)N[C@@H](CO)C(=O)N[C@@H](Cc1c[nH]c2ccccc12)C(=O)O` [SRB103Q] (H-H[Aib]QGTFTSDYSKYLDAKRAQEFIEWLLAGHHHHHPSW-OH), the EC50 was 0.398 nM on GCGR [1]; 200 nM on GLP-1R; 50.1 nM at GCGR [3]; 0.2 nM on GCGR [5] (setting [7]); 0.0158 nM at GCGR [5] (setting [8]). Moreover, the Emax at GCGR [1] is 103 ± 4%; at GLP-1R, 60 ± 2%; at GCGR [3], 77 ± 2%; at GCGR [5] (setting [6]) it was 284 ± 38%; at GCGR [5] (setting [9]) it was 27 ± 4%. The “cAMP 10 min (primary hepatocytes) Emax” value in series [2] is recorded as 175 ± 12. Besides, the “cAMP 16 h (primary hepatocytes) Emax” value in series [2] came to 200 ± 6. Besides, in series [4], the “Pharmacokinetics by serial plasma sampling” value was “no obvious difference in pharmacokinetics”.
